Here are results for three molecules from BindingDB's records for patent US10695334 (Boehringer Ingelheim International, 2020).

What is called IC50 is the concentration at which inhibition is half-maximal. A higher IC50 goes with a need for much substance.

The target in this assay is Kallikrein-1 (Homo sapiens, UniProt P06870). Briefly: Inhibition Assay. How it is done: Prior to the assay, human TK1 (R&D Systems) was activated by incubation with human trypsin (Calbiochem) in a 1:10,000 ratio for 15 min at 37° C. For assaying TK1 inhibitory activity, activated TK1 (31.25 nM or 1 U/mL) was incubated at 24° C. with 0.1 mM fluorogenic substrate H-Pro-Phe-Arg-AMC (11295 from Bachem) and various concentrations of the test compound in assay buffer. Measurements were performed in a kinetic interval every 2nd minute for 16 min using a Spectramax M5 (Molecular Devices) with the following settings of the wavelength excitation of 350 nm and wavelength emission of 450 nm.
Chain of Kallikrein-1 (P06870 whole entry): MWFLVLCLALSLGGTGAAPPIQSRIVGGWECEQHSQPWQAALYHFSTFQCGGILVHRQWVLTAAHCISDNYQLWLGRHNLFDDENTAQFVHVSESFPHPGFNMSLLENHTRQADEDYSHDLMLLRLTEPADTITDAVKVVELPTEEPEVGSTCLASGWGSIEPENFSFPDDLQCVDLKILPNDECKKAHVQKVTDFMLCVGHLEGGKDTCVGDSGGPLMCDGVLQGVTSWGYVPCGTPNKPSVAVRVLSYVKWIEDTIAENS
Consider `Cc1nc(N2CC3(CC3)C2)ccc1Cn1cc(C(=O)N[C@@H]2CCc3c(C)n[nH]c32)cn1` [US10695334, Example 11], for which the IC50 is greater than 10 µM.

The molecule `Cc1nc(N2CC3C(C2)C3(F)F)ccc1Cn1cc(C(=O)N[C@@H]2CCc3c(C)n[nH]c32)c(C)n1` (stereo partly drawn) [US10695334, Example 18] displayed an IC50 greater than 10 µM. To `Cc1nc(N2CC3C(C2)C3(F)F)ncc1Cn1cc(C(=O)N[C@@H]2CCc3c2n[nH]c3C)cn1` (stereo partly drawn) [US10695334, Example 84] belongs greater than 10 µM.
